Measurements as given in patent US7524834B2, “Sterile powders, formulations, and methods for producing the same” (AstraZeneca AB, priority 1997, dated 2009).

Tests used:
[1] = system: spore suspension; test: Decimal reduction time of spores in inoculated glucocorticosteroids at 110° C. (Example 7); settings: for D110 value: Heating at 110° C., spore suspension different from Example 6
Protocol: 1 g of micronized budesonide, prednisolone and beclomethasone dipropionate and 0.5 g of rofleponide were inoculated with a different spore suspension to the one used in Example 6.
The samples were heat treated at 110° C. A sample was withdrawn after various heating times. The number of spores/g were determined by a pour plate technique according to US Pharmacopoeia 23/NF18, 1995, pp. 1681-1686, especially p. 1684.
From the number of spores before and after heat treatment the log reduction of spores and decimal reduction time (time needed at a specified temperature to reduce the number of microorganisms with one log) was calculated.

[2] = system: Bacillus subtilis (globigii) spores; test: Heat sterilization at 110° C. of powder inoculated with spore suspension (Example 2); settings: for Spore population, After / Spore population, Before: 0.5 g sample; for Spore population, After: after 110° C. for 3 hours and 10 min; for Spore population, Before: before heat treatment; for Spore log reduction: 110° C. for 3 hours and 10 min
Protocol: Samples of 0.5 g of budesonide and of 0.5 g of calcium stearate were each inoculated with 0.1 ml of a Steris Bacillus subtilis (globigii) (Lot#LG126B) spore suspension containing 1.5×10^7 spores. Each sample was subjected to a temperature of 110° C. for 3 hours and 10 min in a Baxter Constant Temperature Oven using the same technique as in Example 1. The spore population of the samples was measured and the results obtained are shown below in Table 2.

[3] = system: A. niger; test: Heat resistance of microorganisms inoculated on budesonide powder (Example 3)
Protocol: (§1) Tests were performed to evaluate the heat resistance of various naturally occurring microorganisms.
(§2) Samples of 0.5 g of budesonide powder were each inoculated with approximately 10^2-10^3 viable ATCC microorganisms in 120 ml open-ended polypropylene container. Each sample was subjected to a temperature of 110° C. for 3 hours and 10 min. The microorganism population of the samples was measured before and after heat treatment and the results obtained are shown below in Table 3.

[4] = system: B. subtilis ATCC 6633; test: as above; settings: for Microorganism population, After: after 110° C. for 3 hours and 10 min; for Microorganism population, Before: before heat treatment
Protocol: as §1, §2

[5] = system: C. albicans; test: as above
Protocol: as §1, §2

[6] = system: C. sporegenes; test: as above
Protocol: as §1, §2

[7] = system: E. coli; test: as above
Protocol: as §1, §2

[8] = system: M. luteus; test: as above
Protocol: as §1, §2

[9] = system: Ps. Aeruginosa; test: as above
Protocol: as §1, §2

[10] = system: S. epidermidis; test: as above
Protocol: as §1, §2

[11] = system: Salmonella typhi; test: as above
Protocol: as §1, §2

[12] = system: Bacillus subtilis spores; test: Spore kill kinetics in inoculated micronized budesonide at 100, 110, 120° C., pour plate (Example 6)
Protocol: 5 g of micronized budesonide was inoculated with approximately 2 ml of a spore suspension of Bacillus subtilis.
The substance and the spore suspension were mixed and dried for approximately 3 hours at 55° C. The inoculated and dried budesonide was mixed with 20-40 g of non-inoculated micronized budesonide.
5 g portions of this sample were heat treated at 100° C., 110° C. or 120° C. in a Heraeus ST 5060 heating apparatus. A 1 g sample was withdrawn after various heating times at the respective heating temperatures. Each such 1 g sample was transferred to 10 ml of dilution medium pH 7.2. Appropriate dilutions were made in 0.1% Peptone Aqueous solution and the number of spores/g were determined by a pour plate technique according to US Pharmacopoeia 23/NF18, 1995, pp. 1681-1686, especially p. 1684.
The number of spores before heat treatment were determined in samples heated at 80° C. for 10 min in order to kill the vegetative cells.
The results are shown in Table 6. where the DT value is the amount of time in minutes required to obtain a log 1 reduction in the number of spores before and after heat treatment at the temperature T (in ° C.).

[13] = after 110° C. for 3 hours and 10 min
[14] = B. subtilis ATCC 6633, low inoculum
[15] = 100° C. series, before heat treatment (80° C. 10 min)
[16] = 110° C. series, before heat treatment (80° C. 10 min)
[17] = 120° C. series, before heat treatment (80° C. 10 min)

CCC(=O)OCC(=O)[C@@]1(OC(=O)CC)[C@@H](C)C[C@H]2[C@@H]3CCC4=CC(=O)C=C[C@]4(C)[C@@]3(Cl)[C@@H](O)C[C@@]21C [Beclomethasone dipropionate, beclomethasone dipropionate]
D110 value [1]: 72.7 min

CCCC1O[C@@H]2C[C@H]3[C@@H]4CCC5=CC(=O)C=C[C@]5(C)[C@H]4[C@@H](O)C[C@]3(C)[C@]2(C(=O)CO)O1 (stereo partly shown) [Budesonide, budesonide]
Spore population, After [2]: <10 spores | Spore population, Before [2]: 1.5 × 10^7 spores | Spore log reduction [2]: greater than 6.2 | Microorganism population, After [3, 13]: 0 | Microorganism population, Before ([3]; before heat treatment): 260 | Microorganism population, After ([4]; B. subtilis ATCC 6633, high inoculum, singular bacillus species in 10^0 dilution plate): 1^1 | Microorganism population, Before ([4]; B. subtilis ATCC 6633, high inoculum): 1.2 × 10^5 | Microorganism population, After [4, 14]: 0 | Microorganism population, Before [4, 14]: 300 | Microorganism population, After [5, 13]: 0 | Microorganism population, Before ([5]; before heat treatment): 780 | Microorganism population, After [6, 13]: 0 | Microorganism population, Before ([6]; before heat treatment): 160 | Microorganism population, After [7, 13]: 0 | Microorganism population, Before ([7]; before heat treatment): 450 | Microorganism population, After [8, 13]: 0 | Microorganism population, Before ([8]; before heat treatment): 300 | Microorganism population, After [9, 13]: 0 | Microorganism population, Before ([9]; before heat treatment): 350 | Microorganism population, After [10, 13]: 0 | Microorganism population, Before ([10]; before heat treatment): 240 | Microorganism population, After [11, 13]: 0 | Microorganism population, Before ([11]; before heat treatment): 270 | D100 (time for log 1 reduction in number of spores) ([12]; 100° C.): D100 = 41.5 min; correlation coefficient = −0.0996 This means that it takes 6 × 41.5 minutes to obtain a log 6 reduction in the number of spores at a temperature of 100 °C | log spores/g [12, 15]: 6.81 | spores/g [12, 15]: 6.5 × 10^6 spores/g | log spores/g ([12]; 100° C., 15 min): 3.68 | spores/g ([12]; 100° C., 15 min): 4.8 × 10^3 spores/g | log spores/g ([12]; 100° C., 45 min): 2.85 | spores/g ([12]; 100° C., 45 min): 7.1 × 10^2 spores/g | log spores/g ([12]; 100° C., 75 min): 2.23 | spores/g ([12]; 100° C., 75 min): 1.7 × 10^2 spores/g | D110 (time for log 1 reduction in number of spores) ([12]; 110° C.): D110 = 8.3 min; correlation coefficient = −0.995 This means that it takes 6 × 8.3 minutes to obtain a log 6 reduction in the number of spores at a temperature of 110 °C | log spores/g [12, 16]: 6.20 | spores/g [12, 16]: 2 × 10^6 spores/g | log spores/g ([12]; 110° C., 5 min): 4.32 | spores/g ([12]; 110° C., 5 min): 2.08 × 10^4 spores/g | log spores/g ([12]; 110° C., 15 min): 2.97 | spores/g ([12]; 110° C., 15 min): 9.25 × 10^2 spores/g | log spores/g ([12]; 110° C., 20 min): 2.55 | spores/g ([12]; 110° C., 20 min): 3.55 × 10^2 spores/g | D120 (time for log 1 reduction in number of spores) ([12]; 120° C.): D120 = 4.1 min; correlation coefficient = −0.998 This means that it takes 6 × 4.1 minutes to obtain a log reduction in the number of spores at a temperature of 120 °C | log spores/g [12, 17]: 6.19 | spores/g [12, 17]: 1.5 × 10^6 spores/g | log spores/g ([12]; 120° C., 4 min): 2.28 | spores/g ([12]; 120° C., 4 min): 1.9 × 10^2 spores/g | log spores/g ([12]; 120° C., 6 min): 1.74 | spores/g ([12]; 120° C., 6 min): 5.5 × 10^1 spores/g | log spores/g ([12]; 120° C., 8 min): 1.30 | spores/g ([12]; 120° C., 8 min): 2 × 10^1 spores/g | D110 value [1]: 41 min

C[C@]12C=CC(=O)C=C1CC[C@@H]1[C@@H]2[C@@H](O)C[C@@]2(C)[C@H]1CC[C@]2(O)C(=O)CO [Prednisolone, prednisolone]
D110 value [1]: 73.8 min

CCC[C@@H]1O[C@@H]2C[C@H]3[C@@H]4C[C@H](F)C5=CC(=O)CC[C@]5(C)[C@@]4(F)[C@@H](O)C[C@]3(C)[C@]2(C(=O)CO)O1 [Rofleponide, rofleponide]
D110 value [1]: 9.8 min | Spore kill ([1]; full 1.0 g sample, cycle times ≧5 minutes at 110° C., D110 could not be calculated): total kill

calcium stearate
Spore population, After [2]: 3.3 × 10^6 spores | Spore population, Before [2]: 1.5 × 10^7 spores | Spore log reduction [2]: less than 0.7
